Patent US11730405B2, “Body fluid leakage detection aqueous composition” (MAGLE CHEMOSWED HOLDING AB, priority 2017, dated 2023)
Where “and” joins values, the source holds several entries; their conditions need not be identical. Equal entries are not always repeated. Where two headings read alike, the source gives them in different places.

Tests used:
[1] = system: pancreatic target cells; assay: Cytotoxicity cell culture assay (resazurin to resofurin fluorescence photometry); format: cell-based
Experimental: (§1) PAN toxicology was evaluated by analyzing in vivo pharmacokinetics of its degradation products over 48 hours. Additionally, acute local tissue injury caused by the indicator within minutes as well as macroscopic intra-abdominal side effects and local histological of the device over 8 days were assessed. Finally, cytotoxicity of its degradation products on pancreatic target cells was analyzed.
Cytotoxicity by PAN was further evaluated in a cell culture assay. Metabolic activity of viable cells was evaluated by fluorescence photometry of metabolized resofurin from resazurin after incubation with increasing amount of BTB. PAN indicator hydrogels contain BTB at a concentration of almost 0.5 mg/ml. Thus BTB-solutions with concentrations of 0.5 mg/ml, 1 mg/ml, 1.5 mg/ml, and 5.5 mg/ml, respectively were tested. Cytotoxicity is defined as cell viability less than 70%.

[2] = cited from earlier work
[3] = Pharmacokinetics of BTB in drainage fluid and portal venous blood after abdominal application of PAN indicator hydrogel (HPLC-MS); format: in vivo, domestic pigs (Sus Scrofa Domestica); details: for concentration at 1 day / concentration at 2 day / concentration at 0 min / concentration at 1 min / concentration at 5 min / concentration at 30 min / concentration at 60 min / concentration at 120 min: pig, other: abdominal application at the pancreatic surgery field; for concentration at 5 min: Min 5, mean of animals; for concentration at 30 min: Min 30, mean of animals
Experimental: as §1
For toxicological evaluation of PAN indicator hydrogel pharmacokinetics studies were conducted measuring concentrations of degradation products of the device in body fluid components over time consequently to abdominal application in pancreatic surgery. Blood from portal vein and peritoneal fluid from intraoperative situs or postoperative drainages were sampled. Time points of sampling in relation to indicator application were: 0 min (baseline before indicator application), 1, 5, 30, 60, and 120 min, 1st and 2nd postoperative day. Due to its composition with water and degradable components starch microspheres, only further constituent bromothymol blue (BTB) needed to be evaluated. It should be evaluated if and how much BTB stays in the organism after application at the pancreatic surgery field, gets resorbed to portal venous circulation and passes liver metabolism to reach central venous circulation. Thus, samples of body were collected at the different body compartments over time as described above. Due to expected extremely small BTB-amounts to be measured the very sensitive detection method High Pressure Liquid Chromatography-Mass Spectrometry (HPLC-MS) was used.

[4] = drainage fluid (peritoneal fluid), pig drainage fluid, read-out: Drainage BTB-Concentration, Mean
[5] = portal venous blood, pig portal venous blood, read-out: Portal Venous Blood BTB-Concentration, Mean

Structure (SMILES): Cc1c(C2(c3cc(C(C)C)c(O)c(Br)c3C)OS(=O)(=O)c3ccccc32)cc(C(C)C)c(O)c1Br [BTB, bromothymol blue]
- cytotoxicity (defined as cell viability less than 70%) ([1]; 5.5 mg/ml of BTB): slight toxicity
- cytotoxicity (defined as cell viability less than 70%) ([1]; 0.5-1.5 mg/ml of BTB): No cytotoxicity
- pKa [2]: 7.0
- Drainage BTB-Concentration ([3]; pig drainage fluid, Day 1 (1st postoperative day), individual animals Tox 1-4): < 20 ng/mL and 32.1 ng/mL and 18.9 ng/mL and 14.4 ng/mL and 2.98 ng/mL
- Drainage BTB-Concentration ([3]; pig drainage fluid, Day 2 (2nd postoperative day), individual animals Tox 1-4): no detectable amount and 0 ng/ml
- Drainage BTB-Concentration ([3]; pig drainage fluid, Min 0 (baseline before indicator application), individual animals Tox 1-4): 0 ng/ml (3×) and 7.44 ng/ml
- Drainage BTB-Concentration ([3]; pig drainage fluid, Min 1 after indicator application, individual animals Tox 1-4): 2060 ng/mL and 9220 ng/mL and 3600 ng/mL and 2010 ng/mL
- Drainage BTB-Concentration ([3]; pig drainage fluid, Min 5, individual animals Tox 1-4): 7650 ng/mL and 389 ng/mL and 2560 ng/mL and 2070 ng/mL
- Drainage BTB-Concentration ([3]; pig drainage fluid, Min 30, individual animals Tox 1-4): 3280 ng/mL and 10.7 ng/mL and 1220 ng/mL and 712 ng/mL
- Drainage BTB-Concentration ([3]; pig drainage fluid, Min 60, individual animals Tox 1-4): 1140 ng/mL and 9.27 ng/mL and 1270 ng/mL and 224 ng/mL
- Drainage BTB-Concentration ([3]; pig drainage fluid, Min 120, individual animals Tox 1-4): 619 ng/mL and 263 ng/mL and 631 ng/mL and 121 ng/mL
- Portal Venous Blood BTB-Concentration ([3]; pig portal venous blood, Day 1, individual animals Tox 1-4): 0 ng/mL
- Portal Venous Blood BTB-Concentration ([3]; pig portal venous blood, Day 2, individual animals Tox 1-4): 0 ng/mL
- Portal Venous Blood BTB-Concentration ([3]; pig portal venous blood, Min 0 (baseline before indicator application), individual animals Tox 1-4): 0 ng/mL
- Portal Venous Blood BTB-Concentration ([3]; pig portal venous blood, Min 1, individual animals Tox 1-4): 0 ng/mL
- Portal Venous Blood BTB-Concentration ([3]; pig portal venous blood, Min 5, individual animals Tox 1-4): 0 ng/ml (3×) and 2.02 ng/ml
- Portal Venous Blood BTB-Concentration ([3]; pig portal venous blood, Min 30, individual animals Tox 1-4): 0 ng/ml (3×) and 2.11 ng/ml
- Portal Venous Blood BTB-Concentration ([3]; pig portal venous blood, Min 60, individual animals Tox 1-4): 0 ng/mL
- Portal Venous Blood BTB-Concentration ([3]; pig portal venous blood, Min 120, individual animals Tox 1-4): 0 ng/mL
- concentration at 1 day ([3]; drainage fluid (peritoneal fluid), pig drainage fluid, Day 1, mean of animals, read-out: Drainage BTB-Concentration, Mean): 17.1 ng/mL
- concentration at 2 day ([3]; drainage fluid (peritoneal fluid), pig drainage fluid, Day 2 (2nd postoperative day), individual animals Tox 1-4, read-out: Drainage BTB-Concentration): 0 ng/mL
- concentration at 2 day ([3]; drainage fluid (peritoneal fluid), pig drainage fluid, Day 2, mean of animals, read-out: Drainage BTB-Concentration, Mean): 0 ng/mL
- concentration at 0 min ([3]; drainage fluid (peritoneal fluid), pig drainage fluid, Min 0 (baseline before indicator application), mean of animals, read-out: Drainage BTB-Concentration, Mean): 1.9 ng/mL
- concentration at 1 min ([3]; drainage fluid (peritoneal fluid), pig drainage fluid, Min 1, mean of animals, read-out: Drainage BTB-Concentration, Mean): 4220 ng/mL
- concentration at 5 min [3, 4]: 3170 ng/mL
- concentration at 30 min [3, 4]: 1310 ng/mL
- concentration at 60 min ([3]; drainage fluid (peritoneal fluid), pig drainage fluid, Min 60, mean of animals, read-out: Drainage BTB-Concentration, Mean): 661 ng/mL
- concentration at 120 min ([3]; drainage fluid (peritoneal fluid), pig drainage fluid, Min 120, mean of animals, read-out: Drainage BTB-Concentration, Mean): 408 ng/mL
- concentration at 1 day ([3]; portal venous blood, pig portal venous blood, Day 1, individual animals Tox 1-4, read-out: Portal Venous Blood BTB-Concentration): 0 ng/mL
- concentration at 1 day ([3]; portal venous blood, pig portal venous blood, Day 1, mean of animals, read-out: Portal Venous Blood BTB-Concentration, Mean): 0 ng/mL
- concentration at 2 day ([3]; portal venous blood, pig portal venous blood, Day 2, individual animals Tox 1-4, read-out: Portal Venous Blood BTB-Concentration): 0 ng/mL
- concentration at 2 day ([3]; portal venous blood, pig portal venous blood, Day 2, mean of animals, read-out: Portal Venous Blood BTB-Concentration, Mean): 0 ng/mL
- concentration at 0 min ([3]; portal venous blood, pig portal venous blood, Min 0 (baseline before indicator application), individual animals Tox 1-4, read-out: Portal Venous Blood BTB-Concentration): 0 ng/mL
- concentration at 0 min ([3]; portal venous blood, pig portal venous blood, Min 0 (baseline before indicator application), mean of animals, read-out: Portal Venous Blood BTB-Concentration, Mean): 0 ng/mL
- concentration at 1 min ([3]; portal venous blood, pig portal venous blood, Min 1, individual animals Tox 1-4, read-out: Portal Venous Blood BTB-Concentration): 0 ng/mL
- concentration at 1 min ([3]; portal venous blood, pig portal venous blood, Min 1, mean of animals, read-out: Portal Venous Blood BTB-Concentration, Mean): 0 ng/mL
- concentration at 5 min [3, 5]: 0.51 ng/mL
- concentration at 30 min [3, 5]: 0.53 ng/mL
- concentration at 60 min ([3]; portal venous blood, pig portal venous blood, Min 60, individual animals Tox 1-4, read-out: Portal Venous Blood BTB-Concentration): 0 ng/mL
- concentration at 60 min ([3]; portal venous blood, pig portal venous blood, Min 60, mean of animals, read-out: Portal Venous Blood BTB-Concentration, Mean): 0 ng/mL
- concentration at 120 min ([3]; portal venous blood, pig portal venous blood, Min 120, individual animals Tox 1-4, read-out: Portal Venous Blood BTB-Concentration): 0 ng/mL
- concentration at 120 min ([3]; portal venous blood, pig portal venous blood, Min 120, mean of animals, read-out: Portal Venous Blood BTB-Concentration, Mean): 0 ng/mL
- BTB in portal venous blood ([3]; pigs, 5 and 30 minutes after application, remaining pigs and timepoints no BTB detected): small amounts of BTB were found only in one pig
